# Measured values: publication PMC5118230, “Effects of acetaminophen on mitochondrial complex I activity in the rat liver and kidney: a PET study with ^18F-BCPP-BF” (EJNMMI Research, 2016)
# Tests used:
# [1] = set-up: method as in PMID 24285187, PMID 24470629; conditions: pH 7.4; cited from earlier work
# MC-I [2] = biological target: MC-I; set-up: method as in PMID 24285187, PMID 24470629; conditions: affinity to MC-I; cited from earlier work
# [3] = test system: mitochondrial complex I (MC-I); set-up: method as in PMID 24470629; conditions: with time, significant at the later phase of 60 min after injection; cited from earlier work
# [4] = test system: mitochondrial complex I (MC-I); assay: PET kinetics and distribution of 18F-BCPP-BF in rat abdominal organs; format: in vivo
# Experimental: (§1) Four animals per group were used for PET imaging.
# (§2) Rats anesthetized by 1.5–2.0% isoflurane in O2 were positioned prone on a fixation plate and placed in the gantry hole of the PET scanner (SHR-7700, Hamamatsu Photonics, Hamamatsu, Japan). After a transmission scan for 15 min using a ^68Ge-^68Ga rotation rod source, ^18F-BCPP-BF at ca. 15 MBq was intravenously injected into each rat via the tail vein, and this was followed by an emission scan with list mode data acquisition (every 1 ms) for 90 min. The body temperature of each animal was monitored to record throughout the study using a Thermo-Hygro Recorder (TR-72Ui, T&D Corporation, Matsumoto, Japan).
# (§3) The PET data obtained were reconstructed by Dynamic RAMLA (DRAMA) method with a Gauss filter of 1.0-mm FWHM and attenuation correction using the transmission scan data. Dynamic images every 2 min for the time activity curve (TAC) as well as summation images in the early (from 15 to 30 min after ^18F-BCPP-BF injection) and late (from 70 to 90 min) phases were reconstructed. Since there were no information on the TACs of ^18F-BCPP-BF in the liver and kidney, we conducted PET data acquisition up to 90 min after the injection.
# (§4) Standard uptake value (SUV) images were created as follows: SUV=CTWs/Dinj
# (§5) where C T is the tissue radioactivity (Bq/mL) obtained from PET images, W s is the body weight (g) of the rat being examined, and D inj is the injected dose (Bq) of ^18F-BCPP-BF. Each summation SUV image was superimposed on the corresponding X-CT images obtained using ClairvivoCT (Shimadzu Corporation, Kyoto, Japan). Volumes of interest (VOIs) were selected on summation images of the kidney (renal cortex and pelvis) and liver in the early (from 15 to 30 min) and late (from 70 to 90 min) phases and TACs were obtained from dynamic image data in each organ as SUV by setting the early phase VOIs.
# kidney = assay: biochemical parameters for renal function in urine and serum after acetaminophen; format: in vivo, rat
# Experimental: (§6) In a separate study from PET measurements, physiological and biochemical assessments were conducted on four animals for each time and dosing condition. Body weight measurements, urine collection, and blood sampling were conducted 2, 6, and 24 h after the administration of acetaminophen. A rat was placed in a metabolic cage on a 12/12-h light/dark cycle, and urine samples were collected for 24 h and centrifuged to remove suspended material, and the supernatants were analyzed to measure total protein, creatinine, and N-acetyl-β-D-glucosaminidase (NAG) using a biochemical automatic analyzer (JCA-BM6010, JEOL Ltd., Tokyo, Japan). Blood sample was collected from the tail vein, and the serum fraction separated from the blood was used in assay of alanine aminotransferase (ALT), aspartate aminotransferase (AST), lactate dehydrogenase (LDH), bilirubin (BIL), and BUN using a biochemical automatic analyzer (JCA-BM6010, JEOL Ltd., Tokyo, Japan).
# liver [5] = assay: biochemical parameters for hepatic function in serum after acetaminophen; format: in vivo, rat
# Experimental: as §6
# liver [6] = test system: liver; set-up: method as in PMID 26102222; conditions: acetaminophen 300 mg/kg, mice; cited from earlier work
# [7] = test system: mitochondrial complex I (MC-I); assay: effects of acetaminophen on MC-I activity (18F-BCPP-BF uptake, PET); format: in vivo, rat
# Experimental: In order to evaluate the acute effects of acetaminophen, vehicle or acetaminophen at a dose of 100 or 300 mg/kg in 10 mL/kg of vehicle (saline containing 20% Tween-80) was intraperitoneally administered 2 or 24 h before the PET probe injection.
# as §2, §3, §4, §5
# [8] = test system: mitochondrial complex I (MC-I); assay: binding specificity of 18F-BCPP-BF to MC-I: pre-administration of rotenone, PET; format: in vivo, rat; conditions: rotenone 0.1 mg/kg/h i.v. infusion for 1 h before probe
# Experimental: as §1, §2, §3, §4, §5
# MC-I [9] = test system: MC-I; set-up: method as in PMID 24470629; conditions: rotenone 0.1 mg/kg; cited from earlier work
# [10] = control rat, 15 to 30 min post-injection, i.v.
# [11] = control rat, 70 to 90 min post-injection, i.v.
# [12] = 24 h after acetaminophen 300 mg/kg i.p., p = 0.027
# [13] = 24 h after acetaminophen 300 mg/kg i.p., p < 0.001
# [14] = 24 h after acetaminophen 300 mg/kg i.p., p = 0.034
compound,measurement,setting,value
"CC(C)(C)n1ncc(OCc2ccc(OCCOCCO[11CH3])nc2)c(Cl)c1=O [^11C-BCPP-EM, 2-tert-butyl-4-chloro-5-{6-[2-(2-^11C-methoxy-ethoxy)-ethoxy]-pyridin-3-ylmethoxy}-2H-pyridazin-3-one]",logD7.4,[1],2.87
"COCCOCCOc1ccc(COc2cnn(C(C)(C)C)c(=O)c2Cl)cn1 [^11C-BCPP-EM, 2-tert-butyl-4-chloro-5-{6-[2-(2-^11C-methoxy-ethoxy)-ethoxy]-pyridin-3-ylmethoxy}-2H-pyridazin-3-one]",Ki,MC-I [2],4.7 nM
"CC(C)(C)n1ncc(OCc2ccc(OCCCCF)nc2)c(Cl)c1=O [^18F-BCPP-BF, 2-tert-butyl-4-chloro-5-[6-(4-^18F-fluorobutoxy)-pyridin-3-ylmethoxy]-2H-pyridazin-3-one]",Ki,MC-I [2],0.7 nM
"CC(C)(C)n1ncc(OCc2ccc(OCCCC[18F])nc2)c(Cl)c1=O [^18F-BCPP-BF, 2-tert-butyl-4-chloro-5-[6-(4-^18F-fluorobutoxy)-pyridin-3-ylmethoxy]-2H-pyridazin-3-one]",accumulation of radioactivity in bone (defluorination),[3],slightly greater accumulation of radioactivity in bone with time
same,"averaged SUV, liver",[4]; [10],4.40 ± 0.39
same,"averaged SUV, renal cortex",[4]; [10],8.12 ± 0.69
same,"averaged SUV, renal pelvis",[4]; [10],4.17 ± 0.51
same,"averaged SUV, bladder","[4]; control rat, 15 to 30 min post-injection, i.v., data not shown",0.88 ± 0.42
same,"averaged SUV, liver",[4]; [11],3.75 ± 0.38
same,"averaged SUV, renal cortex",[4]; [11],6.29 ± 0.30
same,"averaged SUV, renal pelvis",[4]; [11],4.37 ± 0.64
same,type of kinetics of the time activity curves,"[4]; rat renal cortex and liver, PET TACs",reversible-type kinetics
same,logD7.4,[1],4.27
"CC(C)(C)n1ncc(OCc2ccc(OCCOCCF)nc2)c(Cl)c1=O [^18F-BCPP-EF, 2-tert-butyl-4-chloro-5-{6-[2-(2-^18F-fluoroethoxy)-ethoxy]-pyridin-3-ylmethoxy}-2H-pyridazin-3-one]",Ki,MC-I [2],2.31 nM
"CC(C)(C)n1ncc(OCc2ccc(OCCOCC[18F])nc2)c(Cl)c1=O [^18F-BCPP-EF, 2-tert-butyl-4-chloro-5-{6-[2-(2-^18F-fluoroethoxy)-ethoxy]-pyridin-3-ylmethoxy}-2H-pyridazin-3-one]",logD7.4,[1],3.03
CC(=O)Nc1ccc(O)cc1 [acetaminophen],urinary protein excretion vs. 100 mg/kg,"kidney; 6 h after acetaminophen 300 mg/kg i.p., p = 0.017",46.9%
same,urinary protein excretion vs. control,"kidney; 6 h after acetaminophen 300 mg/kg i.p., p = 0.028",56.4%
same,urinary protein excretion vs. 100 mg/kg,kidney; [12],143.0%
same,urinary protein excretion vs. control,kidney; [12],128.9%
same,BUN change,"kidney; serum, acetaminophen treatment, at any time",did not show any significant alterations
same,creatinine level vs. control,"kidney; urine, 6 h after acetaminophen 300 mg/kg i.p., p < 0.001",24.3%
same,creatinine level vs. 100 mg/kg,"kidney; urine, 6 h after acetaminophen 300 mg/kg i.p., p = 0.002",23.4%
same,NAG vs. control,"kidney; urine, 24 h after acetaminophen 300 mg/kg i.p., p = 0.011",161.8%
same,NAG vs. 100 mg/kg,"kidney; urine, 24 h after acetaminophen 300 mg/kg i.p., p = 0.027",164.8%
same,NAG change,"kidney; urine, acetaminophen 100 mg/kg i.p.",did not show any significant changes
same,AST vs. the corresponding 100 mg/kg,liver [5]; [13],383.0%
same,AST vs. the corresponding control,liver [5]; [13],322.3%
same,ALT vs. the corresponding control,"liver [5]; 24 h after acetaminophen 300 mg/kg i.p., p = 0.001",207.4%
same,BIL vs. the corresponding 100 mg/kg,liver [5]; [14],233.3%
same,BIL vs. the corresponding control,liver [5]; [14],186.2%
same,ALT level change,liver [5]; acetaminophen 100 mg/kg i.p.,did not show significant changes
same,AST level change,liver [5]; acetaminophen 100 mg/kg i.p.,did not show significant changes
same,BIL level change,liver [5]; acetaminophen 100 mg/kg i.p.,did not show significant changes
same,LDH change from the control condition,"liver [5]; acetaminophen 100 or 300 mg/kg i.p., 2, 6 and 24 h",did not show any significant alterations
same,reduction in 18F-2-DFR uptake by the liver,liver [6],approximately 20%
same,18F-BCPP-BF uptake by the liver vs. control,"[7]; acetaminophen 100 mg/kg i.p., 2 h after, SUV 15 to 30 min, p = 0.017",72.1%
same,18F-BCPP-BF uptake in the renal cortex vs. control,"[7]; acetaminophen 100 mg/kg i.p., 24 h after, SUV 15 to 30 min, p = 0.038",83.4%
same,18F-BCPP-BF uptake by the liver vs. control,"[7]; acetaminophen 100 mg/kg i.p., 24 h after, SUV 15 to 30 min, p = 0.049",81.4%
same,18F-BCPP-BF uptake by the liver vs. control,"[7]; acetaminophen 300 mg/kg i.p., 2 h after, SUV 15 to 30 min, p = 0.003",53.9%
same,18F-BCPP-BF uptake in the renal cortex vs. control,"[7]; acetaminophen 300 mg/kg i.p., 2 h after, SUV 15 to 30 min, p = 0.025",72.1%
same,18F-BCPP-BF uptake in the renal pelvis vs. control,"[7]; acetaminophen 300 mg/kg i.p., 2 h after, SUV 15 to 30 min, p = 0.027",56.6%
same,18F-BCPP-BF uptake by the liver vs. control,"[7]; acetaminophen 300 mg/kg i.p., 24 h after, SUV 15 to 30 min, p = 0.002",80.5%
same,18F-BCPP-BF uptake in the renal cortex vs. control,"[7]; acetaminophen 300 mg/kg i.p., 24 h after, SUV 15 to 30 min, p = 0.009",79.5%
same,reduction of MC-I activity in the liver assessed using 18F-BCPP-BF,[7]; acetaminophen 300 mg/kg in rats,approximately 50%
same,18F-BCPP-BF uptake in the renal pelvis,"[7]; acetaminophen i.p., 24 h after, SUV 15 to 30 min",no significant reduction
C=C(C)[C@H]1Cc2c(ccc3c2O[C@@H]2COc4cc(OC)c(OC)cc4[C@@H]2C3=O)O1 [rotenone],18F-BCPP-BF uptake level in renal cortex vs. control,"[8]; averaged SUV 15 to 30 min, p = 0.027",64.2%
same,18F-BCPP-BF uptake level in liver vs. control,"[8]; averaged SUV 15 to 30 min, p = 0.038",76.9%
same,"inhibition degree of 18F-BCPP-BF uptake in renal cortex, of control","[8]; averaged SUV 70 to 90 min, p = 0.006",52.2%
same,inhibition of the binding of MC-I PET probes to MC-I in the heart and brain,MC-I [9],fully inhibited
